We go through ten molecules from patent US9682991B2, “Tricyclic compounds for use as kinase inhibitors” (FUNDACIÓN CENTRO NACIONAL DE INVESTIGACIONES ONCOLOGICAS …, priority 2009, dated 2017).

Read-outs that look alike come from different tables or passages of the source.

The target of one assay is PIM-2 (Homo sapiens (Human), UniProt Q9P1W9). As to the kind of experiment: PIM-2 biochemical assay (ADP Hunter). The following applies: semi-quantitative; read-out: PIM2 IC50. An excerpt: The biochemical assay to measure PIM-2 activity relies on the ADP Hunter assay kit (DiscoveRx Corp., Cat. #90-0077), that determines the amount of ADP as direct product of the kinase enzyme activity.

Another assay deals with PIM-1 (Homo sapiens (Human), UniProt P11309). The assay can be described thus: PIM-1 biochemical assay (ADP Hunter).
The mark [1] stands for this setting: read-out: PIM1 IC50, semi-quantitative.

Chain of PIM-2 (Q9P1W9 whole entry): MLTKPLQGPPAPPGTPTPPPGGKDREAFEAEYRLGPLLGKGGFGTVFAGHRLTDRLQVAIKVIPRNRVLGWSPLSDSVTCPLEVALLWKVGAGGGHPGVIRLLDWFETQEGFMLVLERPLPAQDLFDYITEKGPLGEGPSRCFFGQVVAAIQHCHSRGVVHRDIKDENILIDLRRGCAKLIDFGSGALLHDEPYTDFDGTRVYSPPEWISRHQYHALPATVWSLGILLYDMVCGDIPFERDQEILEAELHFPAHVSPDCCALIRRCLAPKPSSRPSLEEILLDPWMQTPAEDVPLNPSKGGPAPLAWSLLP
Chain of PIM-1 (P11309 whole entry): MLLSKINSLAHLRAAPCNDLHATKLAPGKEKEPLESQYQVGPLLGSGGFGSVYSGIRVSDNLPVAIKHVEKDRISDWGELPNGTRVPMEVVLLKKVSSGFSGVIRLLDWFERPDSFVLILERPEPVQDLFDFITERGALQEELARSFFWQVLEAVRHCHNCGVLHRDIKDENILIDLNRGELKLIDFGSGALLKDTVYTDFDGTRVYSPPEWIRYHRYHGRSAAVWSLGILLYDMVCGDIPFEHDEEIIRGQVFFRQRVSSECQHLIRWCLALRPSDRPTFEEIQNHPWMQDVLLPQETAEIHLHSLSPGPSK

By IC50 is commonly meant the concentration at which inhibition is half-maximal. Regarding `CN1CCOc2c(N(C)C3CCNCC3)nn3c(-c4cccc(OC(F)(F)F)c4)nnc3c21` [Example 45, Methyl-[9-methyl-3-(3-trifluoromethoxy-phenyl)-8,9-dihydro-7H-6-oxa-1,2,3a,4,9-pentaaza-cyclopenta[a]naphthalen-5-yl]-piperidin-4-yl-amine], the half-inhibitory concentration (IC50) is more than 1000 nM on PIM-2 and 100 to 1000 nM on PIM-1.
Consider `CN1CCOc2c(N3CCC(N)CC3)nn3c(-c4cccc(OC(F)(F)F)c4)nnc3c21` [Example 46, 1-[9-Methyl-3-(3-trifluoromethoxy-phenyl)-8,9-dihydro-7H-6-oxa-1,2,3a,4,9-pentaaza-cyclopenta[a]naphthalen-5-yl]-piperidin-4-ylamine], for which the results for the IC50 on PIM-2 and against PIM-1 were more than 1000 nM and 100 to 1000 nM, respectively.
As to `CN1CCOc2c(NC3CCNCC3)nn3c(-c4cccc(OC(F)(F)F)c4)nnc3c21` [Example 47, [9-Methyl-3-(3-trifluoromethoxy-phenyl)-8,9-dihydro-7H-6-oxa-1,2,3a,4,9-pentaaza-cyclopenta[a]naphthalen-5-yl]-piperidin-4-yl-amine], the results for the IC50 at PIM-2 and against PIM-1 were more than 1000 nM and 100 to 1000 nM, respectively.
Turning to `COc1ccc(-c2nnc3c4c(c(NCC5CCN(C(=O)OC(C)(C)C)CC5)nn23)N(C)CCO4)cc1` [Example 51, 4-{[3-(4-Methoxy-phenyl)-6-methyl-7,8-dihydro-6H-9-oxa-1,2,3a,4,6-pentaaza-cyclopenta[a]naphthalen-5-ylamino]-methyl}-piperidine-1-carboxylic acid tert-butyl ester], the IC50 on PIM-2 and on PIM-1 (setting [1]) was more than 1000 nM throughout.
Turning to `CN1CCOc2c(NCC34CCN(CC3)C4)nn3c(-c4cccc(OC(F)(F)F)c4)nnc3c21` [Example 53, (1-Aza-bicyclo[2.2.1]hept-4-ylmethyl)-[9-methyl-3-(3-trifluoromethoxy-phenyl)-8,9-dihydro-7H-6-oxa-1,2,3a,4,9-pentaaza-cyclopenta[a]naphthalen-5-yl]-amine], the half-inhibitory concentration (IC50) is more than 1000 nM on PIM-2 and 100 to 1000 nM on PIM-1.
Consider `CN1CCOc2c1c(N1CCCC3(CCCN3C)CC1)nn1c(-c3cccc(OC(F)(F)F)c3)nnc21` (centres unmarked) [Example 61, 6-Methyl-5-(1-methyl-1,8-diaza-spiro[4.6]undec-8-yl)-3-(3-trifluoromethoxy-phenyl)-7,8-dihydro-6H-9-oxa-1,2,3a,4,6-pentaaza-cyclopenta[a]naphthalene], for which the figures for the IC50 at PIM-2 and on PIM-1 (setting [1]) were 100 to 1000 nM and less than 100 nM, respectively.
Taken in the same sequence, the figures for `CNCC1CCN(c2nn3c(-c4cccc(OC(F)(F)F)c4)nnc3c3c2N(C)CCO3)CC1` [Example 63, Methyl-{1-[6-methyl-3-(3-trifluoromethoxy-phenyl)-7,8-dihydro-6H-9-oxa-1,2,3a,4,6-pentaaza-cyclopenta[a]naphthalen-5-yl]-piperidin-4-ylmethyl}-amine] were less than 100 nM and less than 100 nM.
`CN1CCOc2c1c(N1CCCC3(CCNCC3)C1)nn1c(-c3cccc(OC(F)(F)F)c3)nnc21` [Example 68, 5-(2,9-Diaza-spiro[S5.5]undec-2-yl)-6-methyl-3-(3-trifluoromethoxy-phenyl)-7,8-dihydro-6H-9-oxa-1,2,3a,4,6-pentaaza-cyclopenta[a]naphthalene]: the 50% inhibitory concentration (IC50) on PIM-2 and at PIM-1 (setting [1]) was less than 100 nM throughout.
Consider `CN1CCC(CNc2nn3c(-c4cccc(OC(F)(F)F)c4)nnc3c3c2N(C)C(C)(C)CO3)CC1` [Example 73, (1-Methyl-piperidin-4-ylmethyl)-[6,7,7-trimethyl-3-(3-trifluoromethoxy-phenyl)-7,8-dihydro-6H-9-oxa-1,2,3a,4,6-pentaaza-cyclopenta[a]naphthalen-5-yl]-amine], for which the results for the concentration for half-maximal inhibition (IC50) on PIM-2 and at PIM-1 (setting [1]) were 100 to 1000 nM and less than 100 nM, respectively.
For the molecule `CN1CCOc2c1c(NCC1CCN(C(=O)OC(C)(C)C)CC1)nn1c(-c3cccc(OC(F)(F)F)c3)nnc21` [Example 79, 4-{[6-Methyl-3-(3-trifluoromethoxy-phenyl)-7,8-dihydro-6H-9-oxa-1,2,3a,4,6-pentaaza-cyclopenta[a]naphthalen-5-ylamino]-methyl}-piperidine-1-carboxylic acid tert-butyl ester], the figures for the IC50 at PIM-2 and against PIM-1 were more than 1000 nM and 100 to 1000 nM, respectively.
